Patent publication US10829516B2 (London Health Sciences Centre Research Inc., priority 2015, dated 2020)
Non-standard residues stand in square brackets, D forms with d. Residues, ends and D or L forms follow the SMILES beside them. *: point of attachment. 1Nal = N[C@@H](Cc1cccc2ccccc12)C(=O)O; d2Nal = N[C@H](Cc1ccc2ccccc2c1)C(=O)O; Benzoyl(4-F) = O=C(c1ccc(F)cc1)*; d2Thi = N[C@H](Cc1cccs1)C(=O)O; Propanoyl(2-F) = CC(F)C(=O)*; Dap = NC[C@H](N)C(=O)O; Aib = CC(C)(N)C(=O)O; Inp = O=C(O)C1CCNCC1

Tests used:
GHS-R1a = molecular target: T1, GHS-R1a (Homo sapiens, UniProt Q92847); assay: Receptor-ligand competitive binding assay, HEK293/GHS-R1a cells with [125I]ghrelin as radioligand
T1 construct: expressed in transfected cells; host or cells: HEK293
T1 sequence (Q92847 whole entry): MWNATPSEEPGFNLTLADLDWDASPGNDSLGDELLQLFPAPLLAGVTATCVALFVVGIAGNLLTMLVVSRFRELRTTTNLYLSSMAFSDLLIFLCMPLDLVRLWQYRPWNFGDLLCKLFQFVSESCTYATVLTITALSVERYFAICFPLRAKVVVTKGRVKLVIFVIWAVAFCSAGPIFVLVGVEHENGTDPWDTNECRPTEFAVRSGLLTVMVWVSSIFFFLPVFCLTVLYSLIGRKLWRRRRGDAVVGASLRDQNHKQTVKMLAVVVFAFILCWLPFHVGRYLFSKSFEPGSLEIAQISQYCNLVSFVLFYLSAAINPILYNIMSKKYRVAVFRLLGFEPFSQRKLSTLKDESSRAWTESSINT
Protocol: Receptor-Ligand Binding Assay
Competitive binding assays were run at the Lawson Health Research Institute at St. Joseph's Health Care in London. […] To begin with, a fresh solution of binding buffer (50 ml) was made up by adding HEPES (0.3 g, 25 mM), MgCl2 (0.051 g, 5 mM), CaCl2 (7.4×10^−3 g, 1 mM), EDTA (0.015 g, 2.5 mM) and BSA (0.2 g, 0.4%) to distilled H2O. The resultant solution was mixed over gentle heat. The pH was then adjusted to 7.4 and the solution filtered. Two miniature complete protease inhibitor tablets were then added and the final buffer solution kept on ice.
After the buffer had been made, assay tubes were labelled and kept on ice during the setup. To assay tubes 1-21, 25-27 and 28-30 was added binding buffer (200 μl, 230 μl and 300 μl respectively). No buffer was added to tubes 22-24. An aliquot of frozen cells was thawed to room temperature, centrifuged (3000×g, 10 mins, room temperature) and the subsequent cell pellet re-suspended in binding buffer (2 ml) and placed on ice. Cells (50 μl) were then added to assay tubes 1-21 and 25-27. Cold peptide was then prepared. This was carried out by adding stock peptide (20 μl) to binding buffer (180 μl) to make a peptide solution of 10^−4M concentration. Binding buffer (180 μl) was then added to assay tubes labelled 10^−5 to 10^−11. A series of dilutions was then made in order to acquire 10^−5 to 10^−11M concentrations. Cold peptide (30 μl) was then added to the corresponding assay tubes in triplicate.
All assay tubes were then vortexed, capped and immediately agitated (550 rpm, 20 mins, 37° C.). After 20 minutes, tubes 1-21 and 25-27 were spun in a large centrifuge (2800 rpm, 2 mins, 4° C.). The solution in all of the tubes was then transferred to Eppendorf tubes (0.5 ml), further binding buffer added (200 μl), the solutions mixed by pipetting and transferred to 0.5 ml tubes. The tubes were then spun again (13 000×g, 5 mins, 4° C.) and placed on ice. The supernatant was removed and the cell pellet rinsed with ice-cold Tris-HCl (200 μl, 50 mM, pH 7.4) and the tubes mixed by inversion. Tubes were spun a final time (13,000×g, 5 mins, 4° C.), cooled on ice and supernatant removed. The tubes were then placed in 12×75 mm assay tubes and counted using a gamma counter (see protocol 3). The binding assay may be summarized as follows:
Competitive binding assays were run on the compounds of Table 2 as described in Example 1. The formulas of the compounds of Table 2 are illustrated in FIGS. 49 and 50.

[1] = molecular target: Human recombinant ghrelin receptor (Homo sapiens, UniProt Q92847); assay: Calcium flux dose-response assay (FLIPR TETRA, EMD Millipore GPCRProfiler); format: cell-based; conditions: for EC50 value compared with ghrelin: FIGS. 51 and 52, Example 3
Sequence of Human recombinant ghrelin receptor (Q92847 whole entry): as above
Protocol: Another in vitro assay performed on the 4-fluorobenzoyl agonist [1-Nal^4,Lys^5(4-FB)]G-7039 and the [Lys^5(2-FP)]G-7039 agonist was a calcium flux dose-response assay. […] In this particular case, the biological effect of the peptidomimetic [1-Nal^4,Lys^5(4-FB)]G-7039 and the peptidomimetic [Lys^5(2-FP)]G-7039 is the release of intracellular calcium ions, a process which is detected by fluorescence using a […] instrument.
If the compound remained soluble 15 minutes after addition, samples were shipped to the EMD Millipore Corporation (15 Research Park Drive, St. Charles, Mo. 63304, USA). […] The agonist assay was performed for a total of 180 seconds. Each assay and assay concentration was performed in duplicate. The data acquired is presented in FIG. 51 ([1-Nal^4,Lys^5(4-FB)]G-7039) and FIG. 52 (Lys^5(2-FP)]G-7039).

GH release = conditions: Elias et al., Endocrinology 1995, read-out: EC50, reported half-maximal effective concentration; cited from earlier work

| SMILES | IC50 (GHS-R1a) [nM] | other results |
| --- | --- | --- |
| CC(F)C(=O)NCCCC[C@H](NC(=O)[C@H](CO)NC(=O)[C@H](Cc1ccccc1)NC(=O)[C@@H](Cc1ccc2ccccc2c1)NC(=O)[C@@H](Cc1ccc2ccccc2c1)NC(=O)C1CCNCC1)C(N)=O (stereo partly drawn) [TL-MF-4-2FP, H-Inp-(D-2-Nal)2-Phe-Ser-Lys(2-FP)-NH2] (H-[Inp][d2Nal][d2Nal]FSK(Propanoyl(2-F))-NH2) | 4.35 | – |
| CC(F)C(=O)NCCCC[C@H](NC(=O)[C@H](Cc1ccccc1)NC(=O)[C@H](CO)NC(=O)[C@@H](Cc1ccc2ccccc2c1)NC(=O)[C@@H](Cc1ccc2ccccc2c1)NC(=O)C1CCNCC1)C(N)=O (stereo partly drawn) [TL-MF-5-2FP, H-Inp-(D-2-Nal)2-Ser-Phe-Lys(2-FP)-NH2] (H-[Inp][d2Nal][d2Nal]SFK(Propanoyl(2-F))-NH2) | 62.9 | – |
| CC(F)C(=O)NCCCC[C@H](NC(=O)[C@H](Cc1ccccc1)NC(=O)[C@@H](Cc1ccc2ccccc2c1)NC(=O)[C@@H](Cc1ccc2ccccc2c1)NC(=O)C1CCNCC1)C(N)=O (stereo partly drawn) [Compound 2-FP-G-7039, H-Inp-D-2-Nal-D-2-Nal-Phe-Lys(2-FP)-NH2] (H-[Inp][d2Nal][d2Nal]FK(Propanoyl(2-F))-NH2) | – | EC50 value compared with ghrelin [1]: below that of ghrelin |
| C[C@H](NC(=O)[C@@H](Cc1c[nH]c2ccccc12)NC(=O)[C@@H](N)Cc1c[nH]cn1)C(=O)N[C@@H](Cc1c[nH]c2ccccc12)C(=O)N[C@H](Cc1ccccc1)C(=O)N[C@@H](CNC(=O)c1ccc(F)cc1)C(N)=O [Dpr-4-FB-GHRP-6, H-His-D-Trp-Ala-Trp-D-Phe-Dpr(4-FB)-NH2] (H-H[dW]AW[dF][Dap](Benzoyl(4-F))-NH2) | 1060 | – |
| C[C@H](N)C(=O)N[C@@H](Cc1c[nH]cn1)C(=O)N[C@H](Cc1ccc2ccccc2c1)C(=O)N[C@@H](C)C(=O)N[C@@H](Cc1c[nH]c2ccccc12)C(=O)N[C@H](Cc1ccccc1)C(=O)N[C@@H](CCCCN)C(N)=O [GHRP-1, H-Ala-His-D-2-Nal-Ala-Trp-D-Phe-Lys-NH2, reference compound] (H-AH[d2Nal]AW[dF]K-NH2) | 181 | – |
| C[C@H](NC(=O)[C@@H](Cc1c[nH]c2ccccc12)NC(=O)[C@@H](N)Cc1c[nH]cn1)C(=O)N[C@@H](Cc1c[nH]c2ccccc12)C(=O)N[C@H](Cc1ccccc1)C(=O)N[C@@H](CCCCNC(=O)c1ccc(F)cc1)C(N)=O [Compound 4-FB-GHRP-6, H-His-D-Trp-Ala-Trp-D-Phe-Lys(4-FB)-NH2] (H-H[dW]AW[dF]K(Benzoyl(4-F))-NH2) | 384 | – |
| C[C@H](NC(=O)[C@@H](Cc1ccc2ccccc2c1)NC(=O)[C@@H](C)N)C(=O)N[C@@H](Cc1c[nH]c2ccccc12)C(=O)N[C@H](Cc1ccccc1)C(=O)N[C@@H](CCCCN)C(N)=O [GHRP-2, H-D-Ala-D-2-Nal-Ala-Trp-D-Phe-Lys-NH2, reference compound] (H-[dA][d2Nal]AW[dF]K-NH2) | 449 | – |
| NCCCC[C@H](NC(=O)[C@H](Cc1cccc2ccccc12)NC(=O)[C@@H](Cc1ccc2ccccc2c1)NC(=O)[C@@H](Cc1ccc2ccccc2c1)NC(=O)C1CCNCC1)C(N)=O [MMF-01-113-G, H-Inp-D-2-Nal-D-2-Nal-1-Nal-Lys-NH2] (H-[Inp][d2Nal][d2Nal][1Nal]K-NH2) | 27.6 | – |
| CC(C)(N)C(=O)N[C@@H](Cc1c[nH]cn1)C(=O)N[C@H](Cc1ccc2ccccc2c1)C(=O)N[C@H](Cc1ccccc1)C(=O)N[C@@H](CCCCN)C(N)=O [Ipamorelin, H-Aib-His-D-2-Nal-D-Phe-Lys-NH2, reference compound] (H-[Aib]H[d2Nal][dF]K-NH2) | 483 | – |
| NCCCC[C@H](NC(=O)[C@H](Cc1ccccc1)NC(=O)[C@@H](Cc1ccc2ccccc2c1)NC(=O)[C@@H](Cc1ccc2ccccc2c1)NC(=O)C1CCNCC1)C(N)=O [Compound G-7039, H-Inp-D-2-Nal-D-2-Nal-Phe-Lys-NH2, reference compound] (H-[Inp][d2Nal][d2Nal]FK-NH2) | 5.21 | EC50 (GH release): 0.18 nM |

More lines, main results first:

| IC50 (GHS-R1a) [nM] | SMILES | other results |
| --- | --- | --- |
| 242 | NC(=O)[C@H](CCCCNC(=O)c1ccc(F)cc1)NC(=O)[C@H](Cc1ccccc1)NC(=O)[C@@H](Cc1ccc2ccccc2c1)NC(=O)[C@@H](Cc1ccc2ccccc2c1)NC(=O)C1CCNCC1 [Compound 4-FB-G-7039, H-Inp-D-2-Nal-D-2-Nal-Phe-Lys(4-FB)-NH2] (H-[Inp][d2Nal][d2Nal]FK(Benzoyl(4-F))-NH2) | – |
| 688 | NC(=O)[C@H](CCCCNC(=O)c1ccc(F)cc1)NC(=O)[C@@H](Cc1ccccc1)NC(=O)[C@@H](Cc1ccc2ccccc2c1)NC(=O)[C@H](Cc1c[nH]cn1)NC(=O)C1CCNCC1 [Inp-4-FB-Ipamorelin, H-Inp-His-D-2-Nal-D-Phe-Lys(4-FB)-NH2] (H-[Inp]H[d2Nal][dF]K(Benzoyl(4-F))-NH2) | – |
| 161 | CC(C)(N)C(=O)N[C@@H](Cc1c[nH]cn1)C(=O)N[C@H](Cc1ccc2ccccc2c1)C(=O)N[C@H](Cc1cccs1)C(=O)N[C@@H](CCCCNC(=O)c1ccc(F)cc1)C(N)=O [Thi-4-FB-Ipamorelin, H-Aib-His-D-2-Nal-D-2-Thi-Lys(4-FB)-NH2] (H-[Aib]H[d2Nal][d2Thi]K(Benzoyl(4-F))-NH2) | – |
| 170 | CC(C)(N)C(=O)N[C@@H](Cc1c[nH]cn1)C(=O)N[C@H](Cc1ccc2ccccc2c1)C(=O)N[C@H](Cc1ccccc1)C(=O)N[C@@H](CCCCNC(=O)c1ccc(F)cc1)C(N)=O [4-FB-Ipamorelin, H-Aib-His-D-2-Nal-D-Phe-Lys(4-FB)-NH2] (H-[Aib]H[d2Nal][dF]K(Benzoyl(4-F))-NH2) | – |
| 1170 | NC(=O)[C@H](CCCCNC(=O)c1ccc(F)cc1)NC(=O)[C@@H](Cc1cccs1)NC(=O)[C@@H](Cc1ccc2ccccc2c1)NC(=O)[C@H](Cc1c[nH]cn1)NC(=O)C1CCNCC1 [Inp-Thi-4-FB-Ipamorelin, H-Inp-His-D-2-Nal-D-2-Thi-Lys(4-FB)-NH2] (H-[Inp]H[d2Nal][d2Thi]K(Benzoyl(4-F))-NH2) | – |
| 1920 | NC(=O)[C@H](CCCCNC(=O)c1ccc(F)cc1)NC(=O)[C@@H](Cc1ccc2ccccc2c1)NC(=O)[C@@H](Cc1ccc2ccccc2c1)NC(=O)[C@H](Cc1c[nH]cn1)NC(=O)C1CCNCC1 [MMF-01-140-H, H-Inp-His-D-2-Nal-D-2-Nal-Lys(4-FB)-NH2] (H-[Inp]H[d2Nal][d2Nal]K(Benzoyl(4-F))-NH2) | – |
| 68.8 | NC(=O)[C@H](CCCCNC(=O)c1ccc(F)cc1)NC(=O)[C@H](Cc1cccc2ccccc12)NC(=O)[C@@H](Cc1ccc2ccccc2c1)NC(=O)[C@@H](Cc1ccc2ccccc2c1)NC(=O)C1CCNCC1 [MMF-01-115-H, H-Inp-D-2-Nal-D-2-Nal-1-Nal-Lys(4-FB)-NH2] (H-[Inp][d2Nal][d2Nal][1Nal]K(Benzoyl(4-F))-NH2) | EC50 value compared with ghrelin [1]: below that of ghrelin; EC50 ([1]; chem-1 cells, Fluo-8 NW dye, duplicate, read-out: EC50, intracellular Ca2+ release): 1.1 nM |
| 0.283 | CC(F)C(=O)NCCCC[C@H](NC(=O)[C@H](Cc1ccc(O)cc1)NC(=O)[C@@H](Cc1ccc2ccccc2c1)NC(=O)[C@@H](Cc1ccc2ccccc2c1)NC(=O)C1CCNCC1)C(N)=O (stereo partly drawn) [TL-MF-3-2FP, H-Inp-D-2-Nal-D-2-Nal-Tyr-Lys(2-FP)-NH2] (H-[Inp][d2Nal][d2Nal]YK(Propanoyl(2-F))-NH2) | – |
| 60.3 | CC(F)C(=O)NCCCC[C@H](NC(=O)[C@H](CO)NC(=O)[C@@H](Cc1ccc2ccccc2c1)NC(=O)[C@@H](Cc1ccc2ccccc2c1)NC(=O)C1CCNCC1)C(N)=O (stereo partly drawn) [TL-MF-2-2FP, H-Inp-(D-2-Nal)2-Ser-Lys(2-FP)-NH2] (H-[Inp][d2Nal][d2Nal]SK(Propanoyl(2-F))-NH2) | – |
